One compound from patent publication US4808596A, “Imidazo[4,5-b]pyridine compounds and pharmaceutical compositions containing same” (Tokyo Tanabe Company, Ltd., priority 1986, dated 1989) can be followed below.

Bounds are passed on as bounds.

Series [1] can be described thus: physchem. Type of series: physicochemical. The settings on record: solid, 75% rh. The method, then:
The storage stability of the present compounds [I] was tested by allowing each test compound to stand under severe conditions (i.e., a temperature of 60° C. and a relative humidity of 75%) for 8 days and then determining its percentage of residue according to a thin-layer densitometric method (Bunseki Kagaku, Vol. 23, No. 9, p. 1016, 1974). More specifically, upon completion of the severe treatment, 100 μg of each test compound was applied to a thin-layer plate and this plate was developed with a chloroform-ethanol mixture (volume ratio 10:1). The thin-layer plate used for this purpose was a TLC Plate Aluminum Oxide 60F254 (manufactured by Merck Co.; 0.25 mm in thickness and 20 cm×20 cm in size), and it was developed over a distance of 15 cm. Then, using a Shimazu Two-wavelength Chromatoscanner CS-910 (manufactured by Shimazu Seisakusho), the resulting spot was analyzed at a wavelength of 300-315 nm.
For purposes of comparison, the percentages of residue of Omeprazole (at a measuring wavelength of 300 nm) and Compounds α and β (at a measuring wavelength of 310 nm) were determined in the same manner as described above and are also shown in Table 1.

Series [2] has as its target T1, (H^+ +K^+) ATPase (Sus scrofa, UniProt P19156).
T1 construct: prepared from fresh pieces of the fundus ventriculi of hog stomach; from tissue; host or cells: hog stomach, fundus ventriculi (fresh pieces), prepared by the method of Saccomani et al., J. Biol. Chem. 1976
Briefly: Inhibitory effect on (H^+ +K^+) ATPase. The settings on record: at 1 × 10^-3 M; in vitro; read-out: Degree of inhibition, Inhibitory effect on (H^+ + K^+) ATPase. The class given is biochemical, hog. How it is done:
The inhibitory effect of the present compounds [I] on (H^+ +K^+) ATPase was tested by adding each test compound to a solution containing 300-500 μg, on a protein basis, of the enzyme, incubating this reaction mixture at 35°-37° C. for 5-30 minutes, and then determining the residual activity of (H^+ +K^+) ATPase present in the reaction mixture. The test compounds were dissolved in methanol or ethanol in advance and added to the reaction system in such an amount as to give a concentration of 1×10^-3 M. The (H^+ +K^+) ATPase used in this test was prepared from fresh pieces of the fundus ventriculi of hog stomach according to the method of Saccomani et al. (The Journal of Biological Chemistry, Vol. 251, No. 23, p. 7690, 1976). The residual activity of (H^+ +K^+) ATPase was determined by mixing magnesium chloride and potassium chloride with the incubated reaction mixture, adding adenosine triphosphate thereto, incubating this assay mixture 37° C. for 5-15 minutes to effect an enzymic reaction, and colorimetrically determining the liberated inorganic phosphate by use of an ammonium molybdate reagent. The initial concentrations of magnesium chloride, potassium chloride and adenosine triphosphate were adjusted to 2 mM, 20 mM and 2 mM, respectively. Colorimetric determinations were made at a wavelength of 360-400 nm. As a control experiment, the residual activity of (H^+ +K^+) ATPase was determined by repeating the above-described procedure without adding any test compound to the reaction system. In this table, the inhibitory effect is indicated by the degree of inhibition which was obtained by calculating the difference between the measured value obtained in the control experiment and the measured value resulting from the addition of each test compound and expressing this difference as a percentage of the measured value obtained in the control experiment. For purposes of comparison, the inhibitory effect of Omeprazole and Compounds α and β on (H^+ +K^+) ATPase was tested in the same manner as described above and the results thus obtained are also shown in Table 2.

Series [3] can be described thus: Acute toxicity test (LD50). The settings on record: rat, in vivo, rats. The method, then:
The acute toxicity (LD50) of several typical examples of the present compounds [I] (i.e., the compounds of Examples 1, 8, 13, 19, 24, 26 and 33) was tested with 5-weeks-old male Wistar rats. […] When Omeprazole was administered orally, its LD50 value was greater than 4000 mg/kg.

The subject of series [4] is gastric acid secretion. Briefly: Inhibitory effect on gastric acid secretion (pylorus ligation). The class given is in vivo, male Wistar rats. The settings on record: Rattus norvegicus, po, rats; total acidity of gastric juice 4 hours after pylorus ligation. The method, then:
The inhibitory effect of the present compounds [I] on gastric acid secretion was tested by using male Wistar rats, weighing about 200 g, in groups of five. To these rats which had been fasted overnight, the test compounds were orally administered in a series of appropriately selected doses ranging from 1 to 100 mg/kg. Then, the pyloric end of the stomach was ligated. After the lapse of 4 hours, the total acidity of gastric juice of each rat was measured. More specifically, the test compounds were suspended in a 0.5% aqueous solution of carboxymethyl cellulose and administered to the rats 30 minutes before ligation. Gastric juice was collected by sacrificing and laparotomizing each rat. The total acidity of gastric juice was determined by titrating the gastric juice with a 0.1 N aqueous solution of sodium hydroxide until a pH of 7.0 was reached. As a control experiment, the total acidity of gastric juice of an untreated group was determined in the same manner as described above. The inhibitory effect of the test compounds on gastric acid secretion was evaluated on the basis of the dose (in mg/kg) required to inhibit gastric acid secretion, i.e. the total acidity of gastric juice, by 50% (hereinafter referred to as ED50). The ED50 value of each test compound was determined by calculating the difference in total acidity between the untreated group and each treated group, dividing the difference by the total acidity of the untreated group to obtain the degree of inhibition, and constructing a dose-response curve on the basis of the data thus obtained. For purposes of comparison, the ED50 values of Omeprazole and Compounds α and β were determined in the same manner as described above and are also shown in Table 3.

T1 sequence (P19156 2-1034 limits assumed): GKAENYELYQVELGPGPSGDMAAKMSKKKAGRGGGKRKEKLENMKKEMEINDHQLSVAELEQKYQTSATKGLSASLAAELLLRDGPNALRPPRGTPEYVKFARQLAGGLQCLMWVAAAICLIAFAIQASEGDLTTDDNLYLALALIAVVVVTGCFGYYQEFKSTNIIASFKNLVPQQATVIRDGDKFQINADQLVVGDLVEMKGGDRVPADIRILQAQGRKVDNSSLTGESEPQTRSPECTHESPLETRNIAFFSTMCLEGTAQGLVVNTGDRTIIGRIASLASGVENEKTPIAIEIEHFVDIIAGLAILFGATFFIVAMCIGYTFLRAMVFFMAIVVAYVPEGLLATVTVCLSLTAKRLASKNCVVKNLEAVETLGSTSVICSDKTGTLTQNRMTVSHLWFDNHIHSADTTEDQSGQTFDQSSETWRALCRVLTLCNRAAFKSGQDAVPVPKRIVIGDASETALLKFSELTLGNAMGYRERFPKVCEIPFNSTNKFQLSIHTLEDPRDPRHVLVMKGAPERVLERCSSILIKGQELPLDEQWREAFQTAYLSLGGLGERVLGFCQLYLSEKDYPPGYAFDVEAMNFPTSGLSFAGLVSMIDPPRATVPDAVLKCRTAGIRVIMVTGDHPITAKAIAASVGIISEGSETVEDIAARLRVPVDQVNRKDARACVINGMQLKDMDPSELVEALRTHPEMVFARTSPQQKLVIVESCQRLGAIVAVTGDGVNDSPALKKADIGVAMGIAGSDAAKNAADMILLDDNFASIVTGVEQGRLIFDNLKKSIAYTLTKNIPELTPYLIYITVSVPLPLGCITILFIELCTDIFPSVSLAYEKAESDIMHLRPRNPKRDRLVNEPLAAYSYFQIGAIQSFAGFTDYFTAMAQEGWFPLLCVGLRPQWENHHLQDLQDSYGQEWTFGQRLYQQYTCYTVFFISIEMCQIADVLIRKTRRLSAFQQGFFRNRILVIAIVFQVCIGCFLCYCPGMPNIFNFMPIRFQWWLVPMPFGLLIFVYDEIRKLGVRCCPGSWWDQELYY
T1 sequence (P18434 whole entry partner): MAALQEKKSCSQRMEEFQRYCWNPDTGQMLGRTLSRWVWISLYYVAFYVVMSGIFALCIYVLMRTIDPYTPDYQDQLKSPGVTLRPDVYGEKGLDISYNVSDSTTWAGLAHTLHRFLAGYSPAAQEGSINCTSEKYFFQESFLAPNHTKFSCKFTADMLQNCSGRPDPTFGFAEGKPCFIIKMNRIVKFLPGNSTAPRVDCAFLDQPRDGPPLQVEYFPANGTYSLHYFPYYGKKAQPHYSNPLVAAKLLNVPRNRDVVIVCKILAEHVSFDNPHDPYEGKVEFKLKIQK

What is called share remaining is what is left of the initial amount, in per cent. As a reminder, the inhibition is the change of the read-out against control, counted positive when it falls. For orientation: LD50 means the dose expected to kill half of the subjects tested. A word on the ED50: it is the dose that gives a 50% effect, or the effect in half of the subjects. Consider `Cc1cnc(C[S+]([O-])c2nc3nc(OCC(C)C)ccc3[nH]2)c(C)c1` (centres unmarked) [Example 19, 2-[2-(3,5-Dimethyl)pyridylmethylsulfinyl]-5-isobutyloxyimidazo[4,5-b]pyridine], for which the share remaining at 192 h in series [1] worked out at 78%. The inhibition at 1000 µM in series [2] turned out to be 100%. In addition, the LD50 is over 500 mg/kg in series [3] (ip, intraperitoneal administration) and over 4000 mg/kg in series [3] (oral administration). The same compound registered an ED50 in series [4] of 11 mg/kg.
